Laboratory results reported in patent US20050267016A1, “CD-10 activated prodrug compounds” (priority 2001, published 2005).
Several values for one entry are separate records, joined by “and”; a condition that tells them apart may be missing. Identical values can stand only once. Like-named read-outs stand apart in the source and are kept apart here. Marks after values point to notes of the source that are not given here.

Assays:
[1] = Metabolism and clearance in normal mice (plasma and urine, LC MS/MS); type: in vivo; conditions: mouse, in vivo; for dose excreted: iv, 117 mg/kg
Procedure: The metabolism and clearance of Suc-Ile-Ala-Leu-Dox was studied in normal mice. The mice were administered Suc-Ile-Ala-Leu-Dox at a single intravenous bolus dose of 117 mg/kg. Plasma samples were obtained at 1 and 4 hours. Plasma samples of 100 μl were transferred to microcentrifuge tubes (1.5 mL) and an internal standard of daunorubicin (20 μL at 0.5 mg/ml) was added together with acetonitrile (400 μl). The tubes were capped and briefly vortexed followed by centrifugation at 14,000 rpm. 420 μl from each tube was removed and dried in vacuo. Each sample was reconstituted in 65 μl 20 mM aqueous ammonium formate pH 4.5 buffer (AF) containing acetonitrile (20%) prior to analysis by reverse phase liquid chromatography in combination with tandem mass spectrometry (LC MS/MS).
Urine was collected at 2 and 24 hours post administration from pairs of mice in metabolic cages. Urine samples were diluted with AF containing acetonitrile (20%) to give a target analyte concentration within the practical range of the LC MS/MS assay. 30 μl of each diluted sample was placed in an Eppendorf tube (1.5 ml) and an internal standard of daunorubicin (20 μL at 0.5 mg/ml) was added together with 50 μl of AF containing acetonitrile (20%). Each sample was then analyzed by LC MS/MS.
An Agilent HP1100 HPLC with DAD detector and Chemstation software was coupled to a PE Sciex API 365 mass spectrometer with an electrospray ion source. HPLC was performed on a TSK-Gel Super ODS, […], 4.6×50 mm (TosoHaas) reversed phase column equipped with a […] C18 guard disc (Higgins Analytical) and stainless steel frit (Upchurch Scientific). Chromatography was performed at room temperature. The flow rate was 0.5 ml/min. Injection volume was 50 μL. Gradient elution was performed using a mobile phase of 20 mM aqueous AF pH 4.5 buffer with increasing amounts of acetonitrile. The API 365 was operated at 365° C. in a multiple reaction monitoring mode, set to monitor specific analyte parent-daughter ion pairs. Integration of chromatograms was performed by MacQuant software (PE Sciex) and quantitation of each analyte obtained by comparison to previously obtained calibration curves. Daunorubicin was used as an internal standard in all cases.
For the calculation of percent of administered dose, plasma volume was estimated to be 40% of blood volume, which was calculated as 7% of animal's body weight. At 2 and 24 hours the parent compound was detected in urine at 3.9% and 15.0% of the administered dose, showing that the kidney is a major organ of excretion for the prodrug (FIG. 17).
Plasma samples were obtained at 1 and 4 hours from separate mice. Urine was collected at 2 and 24 hours post administration from pairs of mice in metabolic cages. The plasma and urine samples were prepared and analyzed as described in Example 17.

BALL-1 cells (CD10neg) = test: cells; conditions: 24 h
Procedure: (§1) Suspension cells, BALL-1, Ramos and Namalwa cells were cultured in RPMI media containing 10% heat inactivated fetal calf serum (FCS). On the day of the study, the cells were collected, washed and resuspended at a concentration of 0.5×10^6 cells/ml in RPMI containing 10% FCS. 100 µl of cell suspension was added to 96 well plates. […] Finally 10 μl of a 100 μCi/ml ^3H-thymidine was added per well and the plates were incubated for 24 hours. The plates were harvested using a 96 well Harvester (Packard Instruments) and counted on a Packard Top Count counter. Four parameter logistic curves were fitted to the ^3H-thymidine incorporation as a function of drug molarity using Prism software to determine IC50 values.
(§2) The effect of two known inhibitors of CD10 on prodrug activity in Ramos, LNCaP and Ball-1 cells was evaluated. The IC50 of Suc-βAla-Ile-Ala-Leu-Dox was determined in the presence of increasing concentration of the CD10 inhibitors, phosphoramidon and thiorphan.

Ramos cells (CD10pos) = test: cells
Procedure: as §1, §2

Porcine Kidney CD10 = test: Hydrolysis by purified CD10; type: biochemical
Procedure: Reaction products were analyzed by HPLC with fluorescence detection. Rates were essentially linear over the incubation period. The observed product was Leu-doxorubicin.

[2] = system: LNCaP (prostate carcinoma) cells; conditions: ratio of IC50
Procedure: (§3) Adherent cells, LNCaP (prostate carcinoma), HT-29 (colon carcinoma) and PC-3 (prostate carcinoma), were cultured in DMEM media containing 10% heat inactivated fetal calf serum (FCS). On the day of the study the cells were detached from the plate with a trypsin solution. The collected cells were washed and resuspended at a concentration of 0.25×10^6 cells/ml in DMEM containing 10% FCS. 100 μl of cell suspension were added to 96 well plates and the plates were incubated for 3 hours to allow the cells to adhere. […] The plates were then incubated for 24 hours, pulsed with 10 μl of a 100 μCi/ml ^3H-thymidine and incubated for an additional 24 hours (total incubation time 48 hours). The plates were harvested using a 96 well Harvester (Packard Instruments) and counted on a Packard Top Count Counter. Four parameter logistic curves were fitted to the ^3H-thymidine incorporation as a function of drug molarity using Prism software to determine IC50 values.
as §3, with “carcinoma), PC-3 (prostate” for “carcinoma), HT-29 (colon”, “and 22 RV1” for “and PC-3”, “with 1:0” for “with 10”
as §2

Namalwa cells (CD10pos) = test: cells; type: cell-based; conditions: ratio of IC50
Procedure: as §1

[3] = system: LNCaP human prostate carcinoma xenografts
Procedure: LNCaP human prostate carcinoma cells express high levels of CD10 on the surface. Suc-βAla-Leu-Ala-Leu-Dox and Suc-Leu-Ala-Gly-Dox were tested at a single dose level Q7Dx5. […] The mice were weighed and tumors were measured (by caliper) at least once a week prior to start of dosing (Day 0), then twice a week during the study. Immediately before the start of dosing (Study Day −2 to Day 0), mice were randomized to various groups based on the weight of the tumors. […] Mice were euthanized after the tumors reached a cutoff weight of 1.5 g (cancer endpoint), or when mice suffered over 25% weight loss (toxic endpoint). Studies were terminated at Day 60.

[4] = system: human colon carcinoma (HT-29) xenograft
Excerpt: Healthy young male nude mice were subcutaneously injected with 5 million of HT-29 cells.

LNCaP xenografts = test: LNCaP xenograft in SCID mice, Q6DX2, equitoxic comparison (Example 27); type: in vivo, C.B-17.SCID mice
Procedure: All compounds except Suc-βAla-Leu-Ala-Leu-Dox (three levels) were dosed at two levels with the goal to get a dose response for all compounds.
Knowing that the LNCaP tumor bearing nude mice have weight loss, we chose very conservative dose levels for each compound estimated to be well-tolerated equitoxic doses based on earlier studies and SD-MTD results. The high dose level for repeat dosing is usually 80% of their SD-MTD, and the low dose level is 80% of the high dose level. Accordingly, groups of ten male CD17.SCID mice, subcutaneously injected with 2.5 million LNCaP cells, were treated intravenously with the compounds at the levels described in Table 22 at six day intervals for a total of two identical doses (Q6DX2).
LNCaP tumors grew well in SCID mice, but the SCID mice with LNCaP tumor xenografts experienced severe weight loss, as 80% of control mice had more than 25% of weight loss by the end of the study. Nevertheless, the efficacy of different treatments at approximately equitoxic levels were compared based on the time it took for 50% of mice to reach toxic weight loss and the total numbers of mice with toxic weight loss at the end of study.

Parental CHO cells = test: Conversion to Leu-Dox or Gly-Dox in cell supernatants, parental CHO; type: cell-based, Chinese Hamster; conditions: 10 μM, 37° C.
Procedure: (§4) To directly ask the question of whether the CD10 expressing cells were capable of cleaving the prodrug, supernatants from CD10 transfected or parental CHO cells treated with the compounds were collected. […] After incubation for 1, 4, and 24 hours, an aliquot of each supernatant was transferred to a 96-well plate and frozen at −20° C. Samples were subsequently thawed and analyzed by reversed phase HPLC (4.6×50 mm 21 TSK Super-ODS column) with fluorescence detection after dilution with 3 volumes of acetonitrile, removal of precipitate by centrifugation, and further dilution into 3 volumes of water. When incubated with Suc-βAla-Leu-Ala-Leu-Dox, there was no detectable metabolism to Leu-Dox observed with the parental cell line while clone 8 (CD10 transfected) generated significant levels of Leu-Dox from Suc-βAla-Leu-Ala-Leu-Dox (Table 27).

[5] = system: CD10 transfected CHO cells (clone 8); test: Conversion to Leu-Dox or Gly-Dox in cell supernatants, CD10 transfected CHO; type: cell-based, Chinese Hamster; conditions: Clone 8 (CD10 transfected), 10 μM, 37° C.
Procedure: as §4

[6] = system: LNCaP prostate carcinoma xenograft; test: LNCaP prostate carcinoma xenograft in nude mice, Q7D × 3 (Examples 30, 31)
Procedure: In this model, 7.5 million LNCaP cells resuspended in 0.1 ml of phosphate buffered saline and 0.1 ml of Matrigel (Becton Dickinson) were injected into the side of male nude mice fed on high fat diet.

[7] = mouse, in vivo, iv, 100 umol/kg
Procedure: (§5) Plasma was obtained from three individual animals in each group at 5 minutes, 1, 2, 4, or 6 hr.

[8] = mouse, in vivo, iv, 100 umol/kg; remark: listed apart in the source
Procedure: as §5

[9] = 40 mg/kg every 7 days for 5 doses
[10] = 67 mg/kg every 7 days for 5 doses

## COc1cccc2c1C(=O)c1c(O)c3c(c(O)c1C2=O)C[C@@](O)(C(=O)CO)C[C@@H]3O[C@H]1C[C@H](NC(=O)[C@H](CC(C)C)NC(=O)[C@H](C)N)[C@H](O)[C@H](C)O1 [Ala-Leu-Dox]
[1]
  Plasma (% adm. dose) 1 hr: 0.00 % adm. dose
  Plasma (% adm. dose) 4 hr: 0.00 % adm. dose
[1]; Urine (% adm. dose) 2 hr
  dose excreted: 0%
[1]; Urine (% adm. dose) 24 hr
  dose excreted: 0%

## COc1cccc2c1C(=O)c1c(O)c3c(c(O)c1C2=O)C[C@@](O)(C(=O)CO)C[C@@H]3O[C@H]1C[C@H](NC(=O)[C@H](CC(C)C)NC(=O)[C@H](Cc2ccc(O)cc2)NC(=O)[C@H](CC(C)C)NC(=O)CCC(=O)O)[C@H](O)[C@H](C)O1 [Suc-Leu-Tyr-Leu-Dox]
BALL-1 cells (CD10neg)
  IC50: 17 µM
Ramos cells (CD10pos); 24 h
  IC50: 20 µM

## COc1cccc2c1C(=O)c1c(O)c3c(c(O)c1C2=O)C[C@@](O)(C(=O)CO)C[C@@H]3O[C@H]1C[C@H](NC(=O)[C@@H](N)CC(C)C)[C@H](O)[C@H](C)O1 [Leu-Dox]
[1]; Urine (% adm. dose) 2 hr
  dose excreted: 1.17%
[1]; Urine (% adm. dose) 24 hr
  dose excreted: 2.25%

## COc1cccc2c1C(=O)c1c(O)c3c(c(O)c1C2=O)C[C@@](O)(C(=O)CO)C[C@@H]3O[C@H]1C[C@H](NC(=O)CNC(=O)[C@H](C)NC(=O)[C@H](CC(C)C)NC(=O)CCC(=O)O)[C@H](O)[C@H](C)O1 [Suc-Leu-Ala-Gly-Dox]
Porcine Kidney CD10; 12.5 μg/mL, 37° C., pH 7.4, product Leu-doxorubicin
  % hydrolysis/10 hr: 0 % hydrolysis/10 hr
Porcine Kidney CD10; standard Suc-βAla-Leu-Ala-Leu-Dox
  Fraction hydrolyzed relative to standard: 0
[2]
  Ratio PC-3:LNCaP: 3
Ramos cells (CD10pos); ratio of IC50
  Ratio Ball-1:Ramos: 1
Namalwa cells (CD10pos)
  Ratio Ball-1:Namalwa: 1
[3]; Dose 110 mg/kg (Table 19), Q7DX5
  Tumor Weight (mg) D12: D12: 795 ± 177 (n = 7) mg
[3]; Dose 110 mg/kg (Table 19), Q7DX5, mice affected/total
  Toxicity (Weight Loss >25%): 1/7
[3]; mouse, in vivo, 110 mg/kg
  Tumor Growth Inhibition (% over control): 1.4%
[4]; [9]
  % TGI (Day 14, mean): 4.0%
  % TGI (Day 25, median): 37.2%
  Calculated Mean Day of Survival: 39 days and 38.8 ± 6.6 days
  Mean Tumor Weight at Day 14: 704 ± 92 mg
  Median Tumor Weight at Day 25: 952 mg
  Number of Long Term Survivors: 1/7
  Toxicity (Weight Loss >20%): 0/7
[4]; [10]
  % TGI (Day 14, mean): 33.2%*
  % TGI (Day 25, median): 43.5%
  Calculated Mean Day of Survival: 41 days and 41.3 ± 7.2 days
  Mean Tumor Weight at Day 14: 490 ± 124 mg
  Median Tumor Weight at Day 25: 857 mg
  Number of Long Term Survivors: 3/7
  Toxicity (Weight Loss >20%): 0/7
LNCaP xenografts; 110 mg/kg Q6DX2
  % Weight Loss at the end of study: 80%
  Time: 50% Weight Loss: 33 days
LNCaP xenografts; 132 mg/kg Q6DX2
  % Weight Loss at the end of study: 80%
  Time: 50% Weight Loss: 29 days
Parental CHO cells
  Conversion rate to Leu-Dox or Gly-Dox: 0.06 mM/h
  Percent Conversion/Hour to Leu-Dox or Gly-Dox: 0.57 Percent Conversion/Hour
[5]
  Conversion rate to Leu-Dox or Gly-Dox: 0.06 mM/h
  Percent Conversion/Hour to Leu-Dox or Gly-Dox: 0.61 Percent Conversion/Hour
[6]; 110 mg/kg (70 Dox equi) Q7D × 3
  TGI D22: 39.7±29.5%
[6]; 110 mg/kg Q7D × 3, N 8
  Survivor D36: D36: 6*
[6]; 110 mg/kg Q7D × 3, >20% body weight loss
  Toxic Endpoint: 0
[6]; 110 mg/kg Q7D × 3, tumors reaching 1000 mg
  Cancer Endpoint: 2
[7]
  AUC(0-t): 310 µM·h
[8]
  Plasma AUC0-6 hr of AL-Dox or AG-Dox*: 2.1 µM·h
  Plasma AUC0-6 hr of L-Dox or G-Dox*: 0.9 µM·h
